{
  "source": "ChEMBL document CHEMBL3272353",
  "about": "“4-Substituted semicarbazones of mono- and dichlorobenzaldehydes as antihypertensive agents” (J Med Chem, 1977)",
  "key": {"Rattus norvegicus [1]": {"tested_on": "Rattus norvegicus", "assay": "Antihypertensive activity in spontaneously hypertensive rat assessed as reduction in mean arterial blood pressure at 100 mg/kg, po administered as two dose at 24 hrs interval measured 4 hrs post second dose relative to control", "type": "functional, Artery", "set-up": "scale not given: the % may be the effect or the level left"}, "Canis familiaris [2]": {"tested_on": "Canis familiaris", "assay": "Toxicity in dog assessed ataxia at 10 mg/kg, po administered in gelatin capsules", "type": "organism-based, Canis lupus familiaris", "set-up": "dose 10 mg/kg, route oral", "details": "in vivo"}, "Rattus norvegicus [3]": {"tested_on": "Rattus norvegicus", "assay": "Antihypertensive activity in spontaneously hypertensive rat assessed as reduction in mean arterial blood pressure at 5 mg/kg, po administered as two dose at 24 hrs interval measured 4 hrs post second dose relative to control", "type": "functional, Artery", "set-up": "scale not given: the % may be the effect or the level left"}, "Rattus norvegicus [4]": {"tested_on": "Rattus norvegicus", "assay": "Antihypertensive activity in spontaneously hypertensive rat assessed as reduction in mean arterial blood pressure at 10 mg/kg, po administered as two dose at 24 hrs interval measured 4 hrs post second dose relative to control", "type": "functional, Artery", "set-up": "scale not given: the % may be the effect or the level left"}, "Canis familiaris [5]": {"tested_on": "Canis familiaris", "assay": "Antihypertensive activity in normotensive dog assessed as reduction in mean arterial blood pressure at 5 to 10 mg/kg, po administered in gelatin capsules", "type": "functional, organism-based", "details": "Canis lupus familiaris, Artery"}, "Rattus norvegicus [6]": {"tested_on": "Rattus norvegicus", "assay": "Toxicity in spontaneously hypertensive rat assessed as general depression of cardiovascular function at 100 mg/kg, po administered as two dose at 24 hrs interval", "type": "organism-based, Heart", "set-up": "dose 100 mg/kg, route oral", "details": "in vivo"}, "Rattus norvegicus [7]": {"tested_on": "Rattus norvegicus", "assay": "Toxicity in spontaneously hypertensive rat assessed as adverse effect at 5 to 10 mg/kg, po administered as two dose at 24 hrs interval", "type": "organism-based", "set-up": "dose 5-10 mg/kg, route oral", "details": "in vivo"}, "Rattus norvegicus [8]": {"tested_on": "Rattus norvegicus", "assay": "Antihypertensive activity in spontaneously hypertensive rat assessed as reduction in mean arterial blood pressure at 25 mg/kg, po administered as two dose at 24 hrs interval measured 4 hrs post second dose relative to control", "type": "functional, Artery", "set-up": "scale not given: the % may be the effect or the level left"}},
  "note": "Active and inactive are the calls of the source. The rule behind the calls is not given here.",
  "data": [
    {"smiles": "CN(C)C(=O)N/N=C/c1ccc(Cl)cc1", "values": [
      {"measurement": "Activity", "setting": "Rattus norvegicus [1]", "value": 16, "unit": "%"}
    ]},
    {"smiles": "O=C(N/N=C/c1c(Cl)cccc1Cl)N1CCOCC1", "values": [
      {"measurement": "Activity", "setting": "Rattus norvegicus [1]", "value": 13, "unit": "%"}
    ]},
    {"smiles": "CN(C)C(=O)N/N=C/c1c(Cl)cccc1Cl", "values": [
      {"measurement": "Activity", "setting": "Canis familiaris [2]", "value": "Toxic"},
      {"measurement": "Activity", "setting": "Rattus norvegicus [3]", "value": 31, "unit": "%"},
      {"measurement": "Activity", "setting": "Rattus norvegicus [4]", "value": 46, "unit": "%"},
      {"measurement": "Activity", "setting": "Canis familiaris [5]", "value": "inactive"},
      {"measurement": "Activity", "setting": "Rattus norvegicus [6]", "value": "Toxic"},
      {"measurement": "Activity", "setting": "Rattus norvegicus [7]", "value": "Non-toxic"}
    ]},
    {"smiles": "N=C(N)N/N=C/c1c(Cl)cccc1Cl", "note": "[GUANABENZ]", "values": [
      {"measurement": "Activity", "setting": "Rattus norvegicus [8]", "value": 26, "unit": "%"}
    ]},
    {"smiles": "CNC(=O)N/N=C/c1c(Cl)cccc1Cl", "values": [
      {"measurement": "Activity", "setting": "Rattus norvegicus [1]", "value": 32, "unit": "%"}
    ]}
  ]
}
